In patent US6787612B1, “Resin derivatization method and uses thereof” (Dendreon Corporation, priority 1998, dated 2004):

Legend:
thrombin = settings: in vitro assays
urokinase = urokinase (Homo sapiens, UniProt P00749); experiment: urokinase inhibitory activity in in vitro assays; format: biochemical; settings: for urokinase inhibitory activity: in vitro assays

Structure (SMILES) | thrombin inhibitory activity (thrombin) | specific inhibitory activity toward urokinase (urokinase) | urokinase inhibitory activity (urokinase)
N=C(N)NCCCC(C=O)NC(=O)CN1CCCC(NS(=O)(=O)Cc2ccccc2)C1=O (stereo not shown) [Example 8, Benzylsulfonamido-6Lactam-Gly-Argininal] | shown to have thrombin inhibitory activity |  | 
N=C(N)NCCCC(C=O)NC(=O)C1CCN1C(=O)C(CO)NS(=O)(=O)c1ccccc1.O=C(O)C(F)(F)F [Example 14, benzenesulfonyl-D-seryl-azetidyl-argininal, trifluoroacetate salt] |  | demonstrates specific inhibitory activity toward urokinase | shown to have urokinase inhibitory activity
C[C@H](NC(=O)[C@@H](CO)NCCCc1ccccc1)C(=O)N[C@H](C=O)CCCNC(=N)N.O=C(O)C(F)(F)F [Example 26, N-alpha-(3-phenylpropyl)-D-seryl-alanyl-argininal, trifluoroacetate salt] |  |  | shown to have urokinase inhibitory activity
